Consider 13 molecules from US20230295200A1 (REGENTS OF THE UNIVERSITY OF MICHIGAN, priority 2022, published 2023).

For one test, the target named is T1, STAT6 protein (Homo sapiens, UniProt P42226).
T1 sequence (P42226 1-847): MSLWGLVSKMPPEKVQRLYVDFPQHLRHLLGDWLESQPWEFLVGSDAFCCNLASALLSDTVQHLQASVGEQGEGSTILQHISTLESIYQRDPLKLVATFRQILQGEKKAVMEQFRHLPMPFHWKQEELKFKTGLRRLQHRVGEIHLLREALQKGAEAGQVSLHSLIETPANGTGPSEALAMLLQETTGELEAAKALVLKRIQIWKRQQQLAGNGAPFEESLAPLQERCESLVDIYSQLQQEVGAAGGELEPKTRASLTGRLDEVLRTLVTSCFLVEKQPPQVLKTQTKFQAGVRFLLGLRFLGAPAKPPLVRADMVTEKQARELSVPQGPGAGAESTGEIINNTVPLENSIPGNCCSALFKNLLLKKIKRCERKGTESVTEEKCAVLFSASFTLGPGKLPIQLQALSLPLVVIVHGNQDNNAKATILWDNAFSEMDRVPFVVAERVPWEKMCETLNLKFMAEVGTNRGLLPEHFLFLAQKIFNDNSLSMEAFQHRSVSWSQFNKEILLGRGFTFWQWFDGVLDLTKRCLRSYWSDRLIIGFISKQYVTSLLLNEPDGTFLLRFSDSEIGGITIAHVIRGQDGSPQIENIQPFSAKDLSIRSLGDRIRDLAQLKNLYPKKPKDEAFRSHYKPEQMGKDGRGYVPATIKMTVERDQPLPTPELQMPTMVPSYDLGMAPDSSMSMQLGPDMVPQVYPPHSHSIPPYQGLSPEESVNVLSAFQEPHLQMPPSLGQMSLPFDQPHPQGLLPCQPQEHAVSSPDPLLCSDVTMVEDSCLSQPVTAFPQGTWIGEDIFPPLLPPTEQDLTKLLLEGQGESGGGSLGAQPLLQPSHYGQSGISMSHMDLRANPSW
The experiment in a line: Fluorescence polarization (FP) binding assay, STAT6. The following applies: FP competition, 5 nM fluorescein-labeled tracer, 200 nM protein, PBS pH7.4; read-out: Binding STAT6. In short, it runs like this: (§1)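 Competitive FP read-out with 5 nM fluorescein-labeled tracer and 200 nM STAT5 or STAT6 protein in PBS pH 7.4 containing 0.01% BGG, 0.01% Tween-20 and 2 mM DTT. Plates were shaken 15 min, then equilibrated 1 h at room temperature; inhibition constants came from nonlinear curve fitting.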

The target of another test is T2, STAT5A (Homo sapiens, UniProt P42229).
T2 sequence (P42229 1-794): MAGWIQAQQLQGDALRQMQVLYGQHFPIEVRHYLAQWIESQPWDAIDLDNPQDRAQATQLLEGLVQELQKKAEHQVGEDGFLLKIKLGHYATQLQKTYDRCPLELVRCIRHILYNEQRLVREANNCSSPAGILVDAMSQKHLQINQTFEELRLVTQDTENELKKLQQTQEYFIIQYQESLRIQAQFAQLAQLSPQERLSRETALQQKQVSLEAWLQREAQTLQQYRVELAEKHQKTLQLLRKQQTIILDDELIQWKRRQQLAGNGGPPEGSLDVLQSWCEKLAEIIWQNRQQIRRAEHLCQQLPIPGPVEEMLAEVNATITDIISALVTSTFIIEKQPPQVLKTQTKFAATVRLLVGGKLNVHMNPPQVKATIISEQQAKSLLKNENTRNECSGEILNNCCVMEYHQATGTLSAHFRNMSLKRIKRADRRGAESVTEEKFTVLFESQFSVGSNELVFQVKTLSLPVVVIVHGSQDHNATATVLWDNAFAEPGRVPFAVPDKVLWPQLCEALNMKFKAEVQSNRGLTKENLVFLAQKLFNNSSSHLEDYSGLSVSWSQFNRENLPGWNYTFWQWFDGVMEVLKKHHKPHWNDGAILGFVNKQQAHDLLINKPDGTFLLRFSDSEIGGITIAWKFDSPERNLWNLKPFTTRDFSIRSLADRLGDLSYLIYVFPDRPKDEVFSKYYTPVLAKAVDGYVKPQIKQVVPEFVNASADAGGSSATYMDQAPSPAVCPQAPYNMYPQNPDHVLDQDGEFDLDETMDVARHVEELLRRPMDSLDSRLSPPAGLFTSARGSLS
Briefly: Fluorescence polarization (FP) binding assay, STAT5A. The note with it: FP competition, 5 nM fluorescein-labeled tracer, 200 nM protein, PBS pH7.4. In short, it runs like this:
as §1

As to `CC(C)(C)[C@H](NC(=O)c1cc2cc(C(F)(F)P(=O)(O)O)ccc2s1)C(=O)N1CCC[C@H]1C(=O)N1CC[C@@H]2CN(C(=O)c3ccc(F)cc3)C[C@@H]21` [Compound 86, (difluoro(2-(((S)-1-((S)-2-((3aR,6aR)-5-(4-fluorobenzoyl)octahydropyrrolo[3,4-b]pyrrole-1-carbonyl)pyrrolidin-1-yl)-3,3-dimethyl-1-oxobutan-2-yl)carbamoyl)benzo[b]thiophen-5-yl)methyl)phosphonic acid], the Ki at STAT6 protein and at STAT5A was above 10 µM each time.
Turning to `CC(=O)N1CC[C@@H]2CN(C(=O)[C@@H]3CCCN3C(=O)[C@@H](NC(=O)c3cc4cc(C(F)(F)P(=O)(O)O)ccc4s3)C(C)(C)C)C[C@@H]21` [Compound 87, ((2-(((S)-1-((S)-2-((3aR,6aR)-1-acetyloctahydropyrrolo[3,4-b]pyrrole-5-carbonyl)pyrrolidin-1-yl)-3,3-dimethyl-1-oxobutan-2-yl)carbamoyl)benzo[b]thiophen-5-yl)difluoromethyl)phosphonic acid], the Ki on STAT6 protein and on STAT5A was above 10 µM in each case.
`CCCCC(=O)N1CC[C@@H]2CN(C(=O)[C@@H]3CCCN3C(=O)[C@@H](NC(=O)c3cc4cc(C(F)(F)P(=O)(O)O)ccc4s3)C(C)(C)C)C[C@@H]21` [Compound 88, ((2-(((S)-3,3-dimethyl-1-oxo-1-((S)-2-((3aR,6aR)-1-pentanoyloctahydropyrrolo[3,4-b]pyrrole-5-carbonyl)pyrrolidin-1-yl)butan-2-yl)carbamoyl)benzo[b]thiophen-5-yl)difluoromethyl)phosphonic acid]: the Ki on STAT6 protein and at STAT5A was above 10 µM each time.
In the case of `CC(C)(C)[C@H](NC(=O)c1cc2cc(C(F)(F)P(=O)(O)O)ccc2s1)C(=O)N1CCC[C@H]1C(=O)N1C[C@H]2CCN(C(=O)c3ccc(F)cc3)[C@H]2C1` [Compound 89, (difluoro(2-(((S)-1-((S)-2-((3aR,6aR)-1-(4-fluorobenzoyl)octahydropyrrolo[3,4-b]pyrrole-5-carbonyl)pyrrolidin-1-yl)-3,3-dimethyl-1-oxobutan-2-yl)carbamoyl)benzo[b]thiophen-5-yl)methyl)phosphonic acid], the Ki on STAT6 protein and at STAT5A was above 10 µM throughout.
For `CC(=O)N1CC[C@H]2CCN(C(=O)[C@@H]3CCCN3C(=O)[C@@H](NC(=O)c3cc4cc(C(F)(F)P(=O)(O)O)ccc4s3)C(C)(C)C)[C@H]2C1` [Compound 90, ((2-(((S)-1-((S)-2-((3aS,7aR)-6-acetyloctahydro-1H-pyrrolo[2,3-c]pyridine-1-carbonyl)pyrrolidin-1-yl)-3,3-dimethyl-1-oxobutan-2-yl)carbamoyl)benzo[b]thiophen-5-yl)difluoromethyl)phosphonic acid], the Ki on STAT6 protein and at STAT5A was above 10 µM each time.
Take `CCCCC(=O)N1CC[C@H]2CCN(C(=O)[C@@H]3CCCN3C(=O)[C@@H](NC(=O)c3cc4cc(C(F)(F)P(=O)(O)O)ccc4s3)C(C)(C)C)[C@H]2C1` [Compound 91, ((2-(((S)-3,3-dimethyl-1-oxo-1-((S)-2-((3aS,7aR)-6-pentanoyloctahydro-1H-pyrrolo[2,3-c]pyridine-1-carbonyl)pyrrolidin-1-yl)butan-2-yl)carbamoyl)benzo[b]thiophen-5-yl)difluoromethyl)phosphonic acid]: the Ki on STAT6 protein and on STAT5A was above 10 µM each time.
With `CC(=O)N1C[C@@H]2CCN(C(=O)[C@@H]3CCCN3C(=O)[C@@H](NC(=O)c3cc4cc(C(F)(F)P(=O)(O)O)ccc4s3)C(C)(C)C)[C@@H]2C1` [Compound 92, ((2-(((S)-1-((S)-2-((3aS,6aS)-5-acetyloctahydropyrrolo[3,4-b]pyrrole-1-carbonyl)pyrrolidin-1-yl)-3,3-dimethyl-1-oxobutan-2-yl)carbamoyl)benzo[b]thiophen-5-yl)difluoromethyl)phosphonic acid], the Ki at STAT6 protein and on STAT5A was above 10 µM in each case.
Turning to `CCCCC(=O)N1C[C@@H]2CCN(C(=O)[C@@H]3CCCN3C(=O)[C@@H](NC(=O)c3cc4cc(C(F)(F)P(=O)(O)O)ccc4s3)C(C)(C)C)[C@@H]2C1` [Compound 93, ((2-(((S)-3,3-dimethyl-1-oxo-1-((S)-2-((3aS,6aS)-5-pentanoyloctahydropyrrolo[3,4-b]pyrrole-1-carbonyl)pyrrolidin-1-yl)butan-2-yl)carbamoyl)benzo[b]thiophen-5-yl)difluoromethyl)phosphonic acid], the Ki at STAT6 protein and at STAT5A was above 10 µM in each case.
On to `CC(C)(C)[C@H](NC(=O)c1cc2cc(C(F)(F)P(=O)(O)O)ccc2s1)C(=O)N1CCC[C@H]1C(=O)N1CC[C@H]2CN(C(=O)c3ccc(F)cc3)C[C@H]21` [Compound 94, (difluoro(2-(((S)-1-((S)-2-((3aS,6aS)-5-(4-fluorobenzoyl)octahydropyrrolo[3,4-b]pyrrole-1-carbonyl)pyrrolidin-1-yl)-3,3-dimethyl-1-oxobutan-2-yl)carbamoyl)benzo[b]thiophen-5-yl)methyl)phosphonic acid], for which the Ki at STAT6 protein and at STAT5A was above 10 µM in each case.
As to `CC(=O)N1CC[C@H]2CN(C(=O)[C@@H]3CCCN3C(=O)[C@@H](NC(=O)c3cc4cc(C(F)(F)P(=O)(O)O)ccc4s3)C(C)(C)C)C[C@H]21` [Compound 95, ((2-(((S)-1-((S)-2-((3aS,6aS)-1-acetyloctahydropyrrolo[3,4-b]pyrrole-5-carbonyl)pyrrolidin-1-yl)-3,3-dimethyl-1-oxobutan-2-yl)carbamoyl)benzo[b]thiophen-5-yl)difluoromethyl)phosphonic acid], the Ki at STAT6 protein and at STAT5A was above 10 µM each time.
For the molecule `CCCCC(=O)N1CC[C@H]2CN(C(=O)[C@@H]3CCCN3C(=O)[C@@H](NC(=O)c3cc4cc(C(F)(F)P(=O)(O)O)ccc4s3)C(C)(C)C)C[C@H]21` [Compound 96, ((2-(((S)-3,3-dimethyl-1-oxo-1-((S)-2-((3aS,6aS)-1-pentanoyloctahydropyrrolo[3,4-b]pyrrole-5-carbonyl)pyrrolidin-1-yl)butan-2-yl)carbamoyl)benzo[b]thiophen-5-yl)difluoromethyl)phosphonic acid], the Ki on STAT6 protein and at STAT5A was above 10 µM throughout.
As for `CC(C)(C)[C@H](NC(=O)c1cc2cc(C(F)(F)P(=O)(O)O)ccc2s1)C(=O)N1CCC[C@H]1C(=O)N1C[C@@H]2CCN(C(=O)c3ccc(F)cc3)[C@@H]2C1` [Compound 97, (difluoro(2-(((S)-1-((S)-2-((3aS,6aS)-1-(4-fluorobenzoyl)octahydropyrrolo[3,4-b]pyrrole-5-carbonyl)pyrrolidin-1-yl)-3,3-dimethyl-1-oxobutan-2-yl)carbamoyl)benzo[b]thiophen-5-yl)methyl)phosphonic acid], the Ki on STAT6 protein and on STAT5A was above 10 µM each time.
Regarding `CC1(c2ccc(F)cc2)CN(C(=O)[C@@H]2CCCN2C(=O)[C@@H](NC(=O)c2cc3cc(C(F)(F)P(=O)(O)O)ccc3s2)C(C)(C)C)CCO1` (stereo partly drawn) [Compound 100, (difluoro(2-(((2S)-1-((2S)-2-(2-(4-fluorophenyl)-2-methylmorpholine-4-carbonyl)pyrrolidin-1-yl)-3,3-dimethyl-1-oxobutan-2-yl)carbamoyl)benzo[b]thiophen-5-yl)methyl)phosphonic acid], the Ki is 1 to 10 µM on STAT6 protein and above 10 µM at STAT5A.
